Oc1ccc(/C=C/c2cc(O)cc(O)c2)cc1
solubility (mole fraction)
Settings | in THF | in acetone | in ethanol | in ethyl acetate | in isopropanol | in methanol | in n-butanol | in n-hexanol | in n-pentanol | in n-propanol
278.2 K | 0.104 | 0.0849 | 0.0117 | 0.0062 | 0.0053 | 0.0108 | 0.0041 | 0.004 | 0.004 | 0.0068
288.2 K | 0.106 | 0.0859 | 0.0139 | 0.0106 | 0.0062 | 0.012 | 0.0058 | 0.0052 | 0.0055 | 0.0088
298.2 K | 0.109 | 0.0866 | 0.0169 | 0.0164 | 0.009 | 0.0135 | 0.0083 | 0.0075 | 0.0093 | 0.0113
308.2 K | 0.112 | 0.0874 | 0.0198 | 0.0214 | 0.011 | 0.0151 | 0.0103 | 0.0087 | 0.0109 | 0.0128
318.2 K | 0.114 | 0.0886 | 0.0223 | 0.0254 | 0.0138 | 0.0166 | 0.0122 | 0.0108 | 0.0143 | 0.0153

Source: BigSolDB 2.1
